In the kinase profiling compilation of Christmann-Franck et al. (2016):

Legend:
Assay in all cases: radiometric filter-binding kinase assay
SRPK1 (human) = SRPK1 (human) (UniProt Q96SB4)
MINK1 (human) = MINK1 (human) (UniProt Q8N4C8)
TAOK1 (human) = TAOK1 (human) (UniProt Q7L7X3)
MARK3 (human) = MARK3 (human) (UniProt P27448)
MAPK13 (human) = MAPK13 (human) (UniProt O15264)
CAMKK2 (human) = CAMKK2 (human) (UniProt Q96RR4)
CLK2 (human) = CLK2 (human) (UniProt P49760)
[1] = test system: PAK2 (human), Q13177 [T402E]
[2] = test system: SGK1 (human), O00141 [S422D]
MAPK8 (human) = MAPK8 (human) (UniProt P45983)
HIPK1 (human) = HIPK1 (human) (UniProt Q86Z02)
TBK1 (human) = TBK1 (human) (UniProt Q9UHD2)
LCK (mouse) = conditions: accession and sequence are those of the human protein
MAPK10 (human) = MAPK10 (human) (UniProt P53779)
STK3 (human) = STK3 (human) (UniProt Q13188)
YES1 (human) = YES1 (human) (UniProt P07947)
DAPK1 (human) = DAPK1 (human) (UniProt P53355)
CSNK2A1 (human) = CSNK2A1 (human) (UniProt P68400)
BRSK2 (human) = BRSK2 (human) (UniProt Q8IWQ3)
FGFR1 (human) = FGFR1 (human) (UniProt P11362)
CHEK1 (human) = CHEK1 (human) (UniProt O14757)
JAK2 JH1 JH2 (human) = JAK2 JH1 JH2 (human) (UniProt O60674)
MAPK11 (human) = MAPK11 (human) (UniProt Q15759)
GCK (human) = GCK (human) (UniProt Q12851)
DYRK3 (human) = DYRK3 (human) (UniProt O43781)
CaMK1 (human) = CaMK1 (human) (UniProt Q14012)
IGF1R (human) = IGF1R (human) (UniProt P08069)
HIPK2 (human) = HIPK2 (human) (UniProt Q9H2X6)
PIM3 (human) = PIM3 (human) (UniProt Q86V86)
AURKB (human) = AURKB (human) (UniProt Q96GD4)
DYRK1A (human) = DYRK1A (human) (UniProt Q13627)
MKNK1 (human) = MKNK1 (human) (UniProt Q9BUB5)
ROCK2 (rat) = conditions: accession and sequence are those of the human protein
EPHB2 (human) = EPHB2 (human) (UniProt P29323)
MAPKAPK5 (human) = MAPKAPK5 (human) (UniProt Q8IW41)
PHKG1 (human) = PHKG1 (human) (UniProt Q16816)

MAPK8 (human), sequence (P45983 whole entry, looked up): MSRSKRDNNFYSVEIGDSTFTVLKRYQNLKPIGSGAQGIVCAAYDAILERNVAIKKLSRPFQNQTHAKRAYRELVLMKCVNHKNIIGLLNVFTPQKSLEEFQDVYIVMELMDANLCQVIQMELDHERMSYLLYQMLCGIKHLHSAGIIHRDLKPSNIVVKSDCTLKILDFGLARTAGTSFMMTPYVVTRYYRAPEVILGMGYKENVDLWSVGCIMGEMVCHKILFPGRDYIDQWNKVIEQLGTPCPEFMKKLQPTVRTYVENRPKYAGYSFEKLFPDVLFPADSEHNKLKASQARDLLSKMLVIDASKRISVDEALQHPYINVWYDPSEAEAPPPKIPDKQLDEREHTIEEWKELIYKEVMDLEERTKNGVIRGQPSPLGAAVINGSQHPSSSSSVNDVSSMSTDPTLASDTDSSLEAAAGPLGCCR
JAK2 JH1 JH2 (human), sequence (O60674 whole entry, looked up): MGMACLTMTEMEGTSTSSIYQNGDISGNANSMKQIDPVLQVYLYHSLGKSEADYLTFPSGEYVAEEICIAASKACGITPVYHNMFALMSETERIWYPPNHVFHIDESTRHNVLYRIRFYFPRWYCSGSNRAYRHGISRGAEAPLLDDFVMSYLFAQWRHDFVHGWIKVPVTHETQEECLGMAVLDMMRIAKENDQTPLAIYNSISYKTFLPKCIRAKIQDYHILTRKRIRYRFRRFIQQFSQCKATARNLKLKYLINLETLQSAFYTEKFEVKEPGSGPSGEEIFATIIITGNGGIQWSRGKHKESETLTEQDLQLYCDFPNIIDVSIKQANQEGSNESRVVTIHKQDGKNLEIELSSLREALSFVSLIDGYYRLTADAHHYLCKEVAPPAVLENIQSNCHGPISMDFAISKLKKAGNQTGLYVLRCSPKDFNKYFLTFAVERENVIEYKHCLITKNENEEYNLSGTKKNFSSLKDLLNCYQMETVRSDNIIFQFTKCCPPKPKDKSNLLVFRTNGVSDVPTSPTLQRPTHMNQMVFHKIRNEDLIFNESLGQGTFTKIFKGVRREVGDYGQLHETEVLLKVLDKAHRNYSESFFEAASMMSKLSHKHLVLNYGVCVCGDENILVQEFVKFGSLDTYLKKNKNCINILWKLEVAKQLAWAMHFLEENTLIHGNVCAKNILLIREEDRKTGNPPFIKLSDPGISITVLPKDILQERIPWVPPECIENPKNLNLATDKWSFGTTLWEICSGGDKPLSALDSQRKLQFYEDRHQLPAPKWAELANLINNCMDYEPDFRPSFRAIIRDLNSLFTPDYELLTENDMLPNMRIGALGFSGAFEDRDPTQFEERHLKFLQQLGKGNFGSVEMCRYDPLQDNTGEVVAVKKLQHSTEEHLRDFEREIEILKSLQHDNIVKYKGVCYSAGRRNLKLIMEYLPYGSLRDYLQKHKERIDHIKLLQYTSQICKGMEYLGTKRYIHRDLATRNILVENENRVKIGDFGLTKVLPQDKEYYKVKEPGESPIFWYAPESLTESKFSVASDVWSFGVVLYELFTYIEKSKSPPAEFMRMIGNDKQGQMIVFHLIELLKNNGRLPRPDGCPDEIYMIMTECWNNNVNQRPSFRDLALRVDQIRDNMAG
HIPK1 (human), sequence (Q86Z02 whole entry, looked up): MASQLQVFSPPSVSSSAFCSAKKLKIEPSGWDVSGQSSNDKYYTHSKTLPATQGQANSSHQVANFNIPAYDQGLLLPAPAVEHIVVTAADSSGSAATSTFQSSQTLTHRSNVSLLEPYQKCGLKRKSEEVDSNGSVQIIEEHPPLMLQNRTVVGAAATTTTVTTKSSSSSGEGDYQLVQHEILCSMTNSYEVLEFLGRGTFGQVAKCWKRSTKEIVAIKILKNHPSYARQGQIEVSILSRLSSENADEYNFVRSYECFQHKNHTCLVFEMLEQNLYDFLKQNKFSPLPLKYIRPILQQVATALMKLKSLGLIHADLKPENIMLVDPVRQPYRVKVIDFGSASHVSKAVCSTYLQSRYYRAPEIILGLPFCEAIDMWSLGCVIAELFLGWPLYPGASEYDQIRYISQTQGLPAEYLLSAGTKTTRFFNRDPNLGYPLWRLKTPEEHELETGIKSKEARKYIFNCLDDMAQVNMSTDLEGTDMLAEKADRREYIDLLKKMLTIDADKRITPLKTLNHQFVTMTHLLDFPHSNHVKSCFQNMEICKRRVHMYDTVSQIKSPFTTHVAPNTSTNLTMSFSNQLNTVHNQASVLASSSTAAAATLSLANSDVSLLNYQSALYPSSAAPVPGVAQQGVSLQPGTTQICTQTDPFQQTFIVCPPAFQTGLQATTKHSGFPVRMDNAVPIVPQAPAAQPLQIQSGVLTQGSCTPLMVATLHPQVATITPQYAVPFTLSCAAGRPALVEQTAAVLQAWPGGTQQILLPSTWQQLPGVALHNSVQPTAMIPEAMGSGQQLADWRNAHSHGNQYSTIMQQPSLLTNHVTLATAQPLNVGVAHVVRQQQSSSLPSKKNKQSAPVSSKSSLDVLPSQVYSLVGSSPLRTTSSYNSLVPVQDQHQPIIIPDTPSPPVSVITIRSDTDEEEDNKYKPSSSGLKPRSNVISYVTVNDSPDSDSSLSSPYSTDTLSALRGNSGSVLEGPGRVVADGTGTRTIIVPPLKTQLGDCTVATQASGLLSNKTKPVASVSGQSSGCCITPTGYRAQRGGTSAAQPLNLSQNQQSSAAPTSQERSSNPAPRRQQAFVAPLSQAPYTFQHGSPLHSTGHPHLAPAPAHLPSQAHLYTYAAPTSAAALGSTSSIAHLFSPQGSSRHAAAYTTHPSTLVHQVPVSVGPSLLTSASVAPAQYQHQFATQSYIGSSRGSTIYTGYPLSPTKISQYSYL
CLK2 (human), sequence (P49760 whole entry, looked up): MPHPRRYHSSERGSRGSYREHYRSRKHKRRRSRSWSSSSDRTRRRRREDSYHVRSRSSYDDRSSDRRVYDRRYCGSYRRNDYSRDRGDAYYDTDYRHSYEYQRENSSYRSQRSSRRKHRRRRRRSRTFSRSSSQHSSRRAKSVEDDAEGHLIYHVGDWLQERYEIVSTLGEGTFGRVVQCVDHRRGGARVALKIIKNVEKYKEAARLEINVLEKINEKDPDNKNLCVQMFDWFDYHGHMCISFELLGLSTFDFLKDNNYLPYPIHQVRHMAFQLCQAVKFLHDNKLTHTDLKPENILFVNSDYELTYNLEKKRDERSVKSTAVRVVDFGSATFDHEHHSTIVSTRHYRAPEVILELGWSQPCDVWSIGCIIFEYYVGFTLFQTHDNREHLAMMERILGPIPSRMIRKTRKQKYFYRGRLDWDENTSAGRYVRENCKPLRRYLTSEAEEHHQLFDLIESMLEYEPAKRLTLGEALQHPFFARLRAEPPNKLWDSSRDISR
MINK1 (human), sequence (Q8N4C8 whole entry, looked up): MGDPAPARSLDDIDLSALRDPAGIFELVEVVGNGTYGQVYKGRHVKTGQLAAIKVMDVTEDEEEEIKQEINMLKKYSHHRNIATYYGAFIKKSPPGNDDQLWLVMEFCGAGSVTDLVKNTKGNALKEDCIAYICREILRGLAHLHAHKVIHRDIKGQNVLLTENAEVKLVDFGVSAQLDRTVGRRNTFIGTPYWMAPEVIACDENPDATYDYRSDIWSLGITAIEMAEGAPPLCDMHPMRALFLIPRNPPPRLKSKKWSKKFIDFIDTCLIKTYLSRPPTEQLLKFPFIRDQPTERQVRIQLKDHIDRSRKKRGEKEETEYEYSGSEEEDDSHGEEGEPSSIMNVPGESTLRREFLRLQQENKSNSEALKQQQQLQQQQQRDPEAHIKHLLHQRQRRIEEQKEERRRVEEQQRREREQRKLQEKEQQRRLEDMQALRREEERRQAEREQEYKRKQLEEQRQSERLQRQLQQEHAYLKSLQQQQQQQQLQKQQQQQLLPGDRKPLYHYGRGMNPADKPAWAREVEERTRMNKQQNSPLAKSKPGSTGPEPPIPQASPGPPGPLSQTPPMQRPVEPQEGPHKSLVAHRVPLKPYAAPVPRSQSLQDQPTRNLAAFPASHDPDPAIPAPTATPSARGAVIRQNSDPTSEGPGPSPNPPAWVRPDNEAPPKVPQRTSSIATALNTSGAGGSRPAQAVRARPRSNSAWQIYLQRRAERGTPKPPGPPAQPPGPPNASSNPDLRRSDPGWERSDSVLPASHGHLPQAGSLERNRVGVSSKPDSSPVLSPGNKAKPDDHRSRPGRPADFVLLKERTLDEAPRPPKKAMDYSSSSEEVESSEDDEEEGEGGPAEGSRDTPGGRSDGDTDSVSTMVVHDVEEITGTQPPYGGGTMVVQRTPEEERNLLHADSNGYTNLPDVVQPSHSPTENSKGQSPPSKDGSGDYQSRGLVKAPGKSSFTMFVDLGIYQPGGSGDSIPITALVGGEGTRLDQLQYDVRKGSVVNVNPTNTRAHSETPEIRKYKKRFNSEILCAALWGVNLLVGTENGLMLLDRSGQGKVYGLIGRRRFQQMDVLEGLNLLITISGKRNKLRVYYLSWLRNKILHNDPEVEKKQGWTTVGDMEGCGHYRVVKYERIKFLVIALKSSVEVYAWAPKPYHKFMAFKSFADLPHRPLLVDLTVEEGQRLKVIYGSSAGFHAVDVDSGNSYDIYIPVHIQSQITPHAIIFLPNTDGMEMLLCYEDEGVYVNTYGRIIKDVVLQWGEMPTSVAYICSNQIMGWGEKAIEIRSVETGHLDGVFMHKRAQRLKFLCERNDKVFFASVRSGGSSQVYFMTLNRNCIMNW
MAPK11 (human), sequence (Q15759 whole entry, looked up): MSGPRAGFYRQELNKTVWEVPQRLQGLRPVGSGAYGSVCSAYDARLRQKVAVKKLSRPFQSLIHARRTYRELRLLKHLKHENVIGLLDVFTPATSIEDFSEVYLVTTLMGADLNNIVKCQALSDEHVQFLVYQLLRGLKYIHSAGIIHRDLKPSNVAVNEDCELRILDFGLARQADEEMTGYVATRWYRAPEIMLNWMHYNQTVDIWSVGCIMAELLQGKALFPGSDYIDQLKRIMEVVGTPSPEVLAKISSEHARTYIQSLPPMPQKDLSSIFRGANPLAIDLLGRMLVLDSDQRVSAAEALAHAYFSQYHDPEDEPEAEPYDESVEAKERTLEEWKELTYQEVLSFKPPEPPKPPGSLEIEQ

N#Cc1c(C2CCNCC2)cc(-c2c(O)cccc2OCC2CC2)nc1N
residual activity (SRPK1 (human); compound 1.0 µM): 92%
residual activity (SRPK1 (human); compound 10.0 µM): 101%
residual activity (MINK1 (human); compound 1.0 µM): 66%
residual activity (MINK1 (human); compound 10.0 µM): 52%
residual activity (TAOK1 (human); compound 1.0 µM): 77%
residual activity (TAOK1 (human); compound 10.0 µM): 57%
residual activity (MARK3 (human); compound 1.0 µM): 118%
residual activity (MARK3 (human); compound 10.0 µM): 82%
residual activity (MAPK13 (human); compound 1.0 µM): 85%
residual activity (MAPK13 (human); compound 10.0 µM): 68%
residual activity (CAMKK2 (human); compound 1.0 µM): 106%
residual activity (CAMKK2 (human); compound 10.0 µM): 57%
residual activity (CLK2 (human); compound 1.0 µM): 43%
residual activity (CLK2 (human); compound 10.0 µM): 7%
residual activity ([1]; compound 1.0 µM): 83%
residual activity ([1]; compound 10.0 µM): 78%
residual activity ([2]; compound 1.0 µM): 96%
residual activity ([2]; compound 10.0 µM): 69%
residual activity (MAPK8 (human); compound 1.0 µM): 110%
residual activity (MAPK8 (human); compound 10.0 µM): 80%
residual activity (HIPK1 (human); compound 1.0 µM): 113%
residual activity (HIPK1 (human); compound 10.0 µM): 62%
residual activity (TBK1 (human); compound 1.0 µM): 80%
residual activity (TBK1 (human); compound 10.0 µM): 86%
residual activity (LCK (mouse); compound 1.0 µM): 82%
residual activity (LCK (mouse); compound 10.0 µM): 33%
residual activity (MAPK10 (human); compound 1.0 µM): 73%
residual activity (MAPK10 (human); compound 10.0 µM): 68%
residual activity (STK3 (human); compound 1.0 µM): 83%
residual activity (STK3 (human); compound 10.0 µM): 34%
residual activity (YES1 (human); compound 1.0 µM): 79%
residual activity (YES1 (human); compound 10.0 µM): 38%
residual activity (DAPK1 (human); compound 1.0 µM): 68%
residual activity (DAPK1 (human); compound 10.0 µM): 46%
residual activity (CSNK2A1 (human); compound 1.0 µM): 91%
residual activity (CSNK2A1 (human); compound 10.0 µM): 93%
residual activity (BRSK2 (human); compound 1.0 µM): 92%
residual activity (BRSK2 (human); compound 10.0 µM): 46%
residual activity (FGFR1 (human); compound 1.0 µM): 97%
residual activity (FGFR1 (human); compound 10.0 µM): 72%
residual activity (CHEK1 (human); compound 1.0 µM): 95%
residual activity (CHEK1 (human); compound 10.0 µM): 92%
residual activity (JAK2 JH1 JH2 (human); compound 1.0 µM): 27%
residual activity (JAK2 JH1 JH2 (human); compound 10.0 µM): 4%
residual activity (MAPK11 (human); compound 1.0 µM): 88%
residual activity (MAPK11 (human); compound 10.0 µM): 71%
residual activity (GCK (human); compound 1.0 µM): 77%
residual activity (GCK (human); compound 10.0 µM): 41%
residual activity (DYRK3 (human); compound 1.0 µM): 84%
residual activity (DYRK3 (human); compound 10.0 µM): 40%
residual activity (CaMK1 (human); compound 1.0 µM): 85%
residual activity (CaMK1 (human); compound 10.0 µM): 27%
residual activity (IGF1R (human); compound 1.0 µM): 86%
residual activity (IGF1R (human); compound 10.0 µM): 35%
residual activity (HIPK2 (human); compound 1.0 µM): 80%
residual activity (HIPK2 (human); compound 10.0 µM): 59%
residual activity (PIM3 (human); compound 1.0 µM): 56%
residual activity (PIM3 (human); compound 10.0 µM): 27%
residual activity (AURKB (human); compound 1.0 µM): 67%
residual activity (AURKB (human); compound 10.0 µM): 42%
residual activity (DYRK1A (human); compound 1.0 µM): 99%
residual activity (DYRK1A (human); compound 10.0 µM): 80%
residual activity (MKNK1 (human); compound 1.0 µM): 101%
residual activity (MKNK1 (human); compound 10.0 µM): 90%
residual activity (ROCK2 (rat); compound 1.0 µM): 88%
residual activity (ROCK2 (rat); compound 10.0 µM): 61%
residual activity (EPHB2 (human); compound 1.0 µM): 119%
residual activity (EPHB2 (human); compound 10.0 µM): 113%
residual activity (MAPKAPK5 (human); compound 1.0 µM): 90%
residual activity (MAPKAPK5 (human); compound 10.0 µM): 88%
residual activity (PHKG1 (human); compound 1.0 µM): 77%
residual activity (PHKG1 (human); compound 10.0 µM): 59%
